Experimental data reported in patent publication US20200404919A1, “USE OF HETEROARYL-TRIAZOLE AND HETEROARYL-TETRAZOLE COMPOUNDS AS PESTICIDES IN PLANT PROTECTION” (Bayer Aktiengesellschaft, priority 2018, published 2020).

What was measured:
Assay type in all cases: in vivo
Phaedon cochleariae = Phaedon cochleariae - spray test; details: in Brassica rapa, foliar, 168 h, read-out: mortality in %
Summary of the method: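 Chinese cabbage leaf disks sprayed with compound diluted in water containing 1000 ppm emulsifier, then infested with mustard beetle larvae once dry. Mortality in % scored after 7 days (100% = all larvae killed, 0% = none).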

Diabrotica balteata = Diabrotica balteata - spray test; details: 168 h, 160 μg/well, germinated wheat seeds, larvae, after 7 days, read-out: efficacy in %
Summary of the method: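 Wheat seeds germinated 1 day on agar were sprayed with compound diluted in water with 1000 ppm emulsifier, then infested with 10-20 Diabrotica balteata larvae. Efficacy in % scored after 7 days: 100% = seedlings grown as untreated, uninfected control; 0% = no seedlings grown.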

Nezara viridula [1] = experiment: Nezara viridula - spray test 1; details: in Hordeum vulgare, 96 h, read-out: mortality in %
Summary of the method: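 Barley plants carrying southern green stink bug larvae were sprayed with compound diluted in water with 1000 ppm emulsifier. Mortality (%) was scored after 4 days.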

Nilaparvata lugens [2] = experiment: Nilaparvata lugens - spray test 2; details: 96 h, rice plants, larvae, after 4 days
Description: Nilaparvata lugens —Spray Test 2
(§1) To produce a suitable preparation of active compound, 1 part by weight of active compound is mixed with the stated amount of solvents and is diluted with water, containing an emulsifier concentration of 1000 ppm, to the desired concentration. Further test concentrations are prepared by dilution with emulsifier containing water. Ammonium salt and/or penetration enhancer in a dosage of 1000 ppm are added to the desired concentration if necessary.
Rice plants (Oryza sativa) are treated by being sprayed with the desired concentration of the active compound and are infested with larvae of the brown planthopper (Nilaparvata lugens).
After 4 days mortality in % is determined. 100% means all planthoppers have been killed and 0% means none of the planthoppers have been killed.

Myzus persicae [3] = experiment: Myzus persicae - spray test; details: foliar, 120 h, Chinese cabbage leaf disks, all instars, after 5 days
Description: Myzus persicae—Spray Test
as §1, with “water.” for “water. Ammonium salt and/or penetration enhancer in a dosage of 1000 ppm are added to the desired concentration if necessary.”
Chinese cabbage (Brassica pekinensis) leaf disks infected with all instars of the green peach aphid (Myzus persicae), are sprayed with a preparation of the active ingredient of the desired concentration.
After 5 days mortality in % is determined. 100% means all aphids have been killed and 0% means none of the aphids have been killed.

Nezara viridula [4] = experiment: Nezara viridula - spray test 2; details: 96 h, barley plants, larvae, after 4 days
Description: Nezara viridula—Spray Test 2
To produce a suitable preparation of active compound, 1 part by weight of active compound is mixed with the stated amount of solvent, and the concentrate is diluted with water, containing an emulsifier concentration of 1000 ppm, to the desired concentration. Ammonium salt and/or penetration enhancer in a dosage of 1000 ppm are added to the desired concentration if necessary.
Barley plants (Hordeum vulgare) infested with larvae of the southern green stink bug (Nezara viridula) are sprayed with a test solution containing the desired concentration of the active ingredient.
After 4 days mortality in % is determined. 100% means all the stink bugs have been killed; 0% means none of the stink bugs have been killed.

Myzus persicae [5] = experiment: Myzus persicae - oral test; details: 120 h, read-out: mortality in %
Summary of the method: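 Mixed-population green peach aphids fed through parafilm on compound diluted in water plus IPL41 insect medium (33%+15% sugar). Mortality (%) scored after 5 days, 100% meaning all aphids killed.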

Aphis gossypii = Aphis gossypii - oral test; details: 120 h, read-out: mortality in %
Summary of the method: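 Mixed-population cotton aphids feed through parafilm on compound (acetone stock diluted in water) mixed with IPL41 insect medium containing sugar. Mortality (%) scored after 5 days.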

Nilaparvata lugens [6] = experiment: Nilaparvata lugens - spray test 1; details: in Oryza sativa, 96 h, read-out: mortality in %, 500 g/ha, rice plants, after 4 days
Summary of the method: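 Rice plants (Oryza sativa) were sprayed with the compound preparation in water containing 1000 ppm emulsifier, then infested with brown planthoppers. Percent mortality scored after 4 days (100% = all killed, 0% = none).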

Spodoptera frugiperda = Spodoptera frugiperda - spray test; details: in Zea mays, 168 h, read-out: mortality in %
Summary of the method: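 Compound mixed with solvent, diluted with 1000 ppm emulsifier water to test concentrations; sprayed on maize leaf pieces; dried; larvae added; mortality (%) scored at 7 d.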

Culex quinquefasciatus = experiment: Culex test (CULXFAS surface treatment & contact assay); details: 30 minutes exposure, 24 hours after contact, read-out: efficacy (mortality in percent); for mortality at 4 mg/m2: surface concentration 4 mg/m^2, glazed tile; for mortality at 20 mg/m2: surface concentration 20 mg/m^2, glazed tile; for mortality at 100 mg/m2: surface concentration 100 mg/m^2, glazed tile
Summary of the method: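 Test compound dissolved in acetone + 2000 ppm rapeseed oil methyl ester, applied to glazed tile and acetone evaporated; adult mosquitoes exposed on dried surface for 30 minutes. Mortality (%) scored 24 hours after contact; 100% = all insects dead, 0% = none dead.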

[7] = test system: Anopheles funestus strain FUMOZ-R; experiment: Anopheles test (ANPHFU surface treatment & contact assay); details: 30 minutes exposure, 24 hours after contact, read-out: efficacy (mortality in percent); for mortality at 4 mg/m2: surface concentration 4 mg/m^2, glazed tile; for mortality at 20 mg/m2: surface concentration 20 mg/m^2, glazed tile; for mortality at 100 mg/m2: surface concentration 100 mg/m^2, glazed tile
Description: Anopheles Test (ANPHFU Surface Treatment & Contact Assay)
Solvent: Acetone+2000 ppm rapeseed oil methyl ester (RME)
In order to produce a sufficient, active ingredient containing solution it is necessary to solve the test-compound in an acetone/RME solvent mixture. This solution is pipetted onto a glazed tile and after evaporation of the acetone, adult mosquitoes of the species Anopheles funestus strain FUMOZ-R (Hunt et al., Med Vet Entomol. 2005 Sep. 19(3):271-5) are placed onto the dried surface. The exposure time is 30 minutes.
Mortality in percent (%) is determined 24 hours after contact to the treated surface. 100% mortality means that all test-insects are dead, whereas 0% means that not a single insect died.

Meloidogyne incognita = Meloidogyne incognita - test; details: 336 h, salad seedlings in sand, after 14 days, read-out: nematicidal activity (percentage of gall formation)
Description: Meloidogyne incognita—Test
Solvent: 125.0 parts by weight of acetone
To produce a suitable preparation of active compound, 1 part by weight of active compound is mixed with the stated amount of solvent, and the concentrate is diluted with water to the desired concentration.
Vessels are filled with sand, a solution of the active ingredient, a suspension containing eggs and larvae of the southern root-knot nematode (Meloidogyne incognita) and salad seeds. The salad seeds germinate and the seedlings grow. Galls develop in the roots.
After 14 days the nematicidal activity is determined on the basis of the percentage of gall formation. 100% means no galls were found and 0% means the number of galls found on the roots of the treated plants was equal to that in untreated control plants.

[8] = test system: Aedes aegypti strain MONHEIM; experiment: Aedes test (AEDSAE surface treatment & contact assay); details: 30 minutes exposure, 24 hours after contact, read-out: efficacy (mortality in percent); for mortality at 4 mg/m2: surface concentration 4 mg/m^2, glazed tile; for mortality at 20 mg/m2: surface concentration 20 mg/m^2, glazed tile; for mortality at 100 mg/m2: surface concentration 100 mg/m^2, glazed tile
Summary of the method: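 Compound in acetone plus 2000 ppm RME applied to glazed tile; after acetone evaporation, adult mosquitoes held on dried surface for 30 minutes. Percent mortality scored 24 hours after contact.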

Tetranychus urticae = Tetranychus urticae - spray test OP-resistant; details: foliar, 144 h, French bean leaf disks, all instars, after 6 days
Description: Tetranychus urticae—Spray Test OP-Resistant
as §1, with “water.” for “water. Ammonium salt and/or penetration enhancer in a dosage of 1000 ppm are added to the desired concentration if necessary.”
French bean (Phaseolus vulgaris) leaf disks infected with all instars of the two spotted spidermite (Tetranychus urticae), are sprayed with a preparation of the active ingredient of the desired concentration.
After 6 days mortality in % is determined. 100% means all spider mites have been killed and 0% means none of the spider mites have been killed.

[9] = test system: Musca domestica strain WHO-N; experiment: Musca domestica test (MUSCDO surface treatment & contact assay); details: 30 minutes exposure, 24 hours after contact, read-out: efficacy (mortality in percent)
Summary of the method: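 Compound in acetone with 2000 ppm rapeseed oil methyl ester applied to glazed tile; after acetone evaporation, adult Musca domestica WHO-N flies exposed on dried surface for 30 minutes. Mortality (%) assessed 24 hours after contact.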

Compound	mortality at 500 g/ha (Phaedon cochleariae) [%]	pest or weed control at 160 µg/disc, 160 µg/well (Diabrotica balteata) [%]	mortality at 500 g/ha (Nezara viridula [1]) [%]	mortality at 500 g/ha (Myzus persicae [3]) [%]	mortality at 20 ppm (Myzus persicae [5]) [%]	mortality at 100 ppm (Aphis gossypii) [%]	mortality at 500 g/ha (Nilaparvata lugens [6]) [%]	mortality at 500 g/ha (Spodoptera frugiperda) [%]	also measured
CC(c1ncnn1-c1ncccn1)N(CC1CC1)C(=O)c1cc(Cl)cc(C(F)(F)F)c1 (centres unmarked) [Compound I-40, 3-chloro-N-(cyclopropylmethyl)-N-[1-(2-pyrimidin-2-yl-1,2,4-triazol-3-yl)ethyl]-5-(trifluoromethyl)benzamide]	100	100	100	90	100	100	100	100	mortality at 500 g/ha (Nilaparvata lugens [2]): 100%; mortality at 500 g/ha (Nezara viridula [4]): 100%
CC(NC(=O)c1cc(Cl)cc(C(F)(F)F)c1)c1ncnn1-c1ncccn1 (centres unmarked) [Compound I-76]	100	100	100		100	100	100	100	mortality at 500 g/ha (Nilaparvata lugens [2]): 100%; mortality at 500 g/ha (Nezara viridula [4]): 100%
C[C@@H](c1ncnn1-c1ncccn1)N(CC1CC1)C(=O)c1cc(Cl)cc(C(F)(F)F)c1 [Compound I-93, 3-chloro-N-(cyclopropylmethyl)-N-[(1S)-1-(2-pyrimidin-2-yl-1,2,4-triazol-3-yl)ethyl]-5-(trifluoromethyl)benzamide]	100	100		100	100	100	100	100	mortality at 4 mg/m2 (Culex quinquefasciatus): 80 to 100%; mortality at 20 mg/m2 (Culex quinquefasciatus): 80 to 100%; mortality at 100 mg/m2 (Culex quinquefasciatus): 80 to 100%; mortality at 4 mg/m2 [7]: 80 to 100%; mortality at 20 mg/m2 [7]: 80 to 100%; mortality at 100 mg/m2 [7]: 80 to 100%; mortality at 500 g/ha (Nilaparvata lugens [2]): 100%; pest or weed control at 20 ppm (Meloidogyne incognita): 100%; mortality at 500 g/ha (Nezara viridula [4]): 100%; mortality at 4 mg/m2 [8]: 80 to 100%; mortality at 20 mg/m2 [8]: 80 to 100%; mortality at 100 mg/m2 [8]: 80 to 100%
CC(c1ncnn1-c1ncccn1)N(CC#N)C(=O)c1cc(Cl)cc(C(F)(F)F)c1 (centres unmarked) [Compound I-96]			100	90			100	100	mortality at 500 g/ha (Tetranychus urticae): 90%
C[C@H](NC(=O)c1cc(Cl)cc(C(F)(F)F)c1)c1ncnn1-c1ncccn1 [Compound I-113, 3-chloro-N-[(1S)-1-(2-pyrimidin-2-yl-1,2,4-triazol-3-yl)ethyl]-5-(trifluoromethyl)benzamide]	100	100	100		100	100	100	100	mortality at 4 mg/m2 (Culex quinquefasciatus): 80 to 100%; mortality at 20 mg/m2 (Culex quinquefasciatus): 80 to 100%; mortality at 100 mg/m2 (Culex quinquefasciatus): 80 to 100%; mortality at 4 mg/m2 ([9]; surface concentration 4 mg/m^2, glazed tile): 80 to 100%; mortality at 20 mg/m2 ([9]; surface concentration 20 mg/m^2, glazed tile): 80 to 100%; mortality at 4 mg/m2 [7]: 80 to 100%; mortality at 20 mg/m2 [7]: 80 to 100%; mortality at 100 mg/m2 [7]: 80 to 100%; mortality at 4 mg/m2 [8]: 80 to 100%; mortality at 20 mg/m2 [8]: 80 to 100%; mortality at 100 mg/m2 [8]: 80 to 100%
CC(c1ncnn1-c1ncccn1)N(CC(F)F)C(=O)c1cccc(C(F)(F)F)c1 (centres unmarked) [Compound I-123]			100	90			100	100	mortality at 500 g/ha (Tetranychus urticae): 100%
CC(NC(=O)c1cc(Cl)cc(Cl)c1)c1ncnn1-c1ncccn1 (centres unmarked) [Compound I-124]			100	90			90	100	
CC(NC(=O)c1cc(Cl)cc(Br)c1)c1ncnn1-c1ncccn1 (centres unmarked) [Compound I-125, 3-bromo-5-chloro-N-[1-(2-pyrimidin-2-yl-1,2,4-triazol-3-yl)ethyl]benzamide]		100	100	90				100	
CC(NC(=O)c1cc(Cl)cc(I)c1)c1ncnn1-c1ncccn1 (centres unmarked) [Compound I-126, 3-chloro-5-iodo-N-[1-(2-pyrimidin-2-yl-1,2,4-triazol-3-yl)ethyl]benzamide]		100	100	90				100	
C[C@@H](c1ncnn1-c1ncccn1)N(CC(F)F)C(=O)c1cc(Cl)cc(C(F)(F)F)c1 [Compound I-127, 3-chloro-N-(2,2-difluoroethyl)-N-[(1S)-1-(2-pyrimidin-2-yl-1,2,4-triazol-3-yl)ethyl]-5-(trifluoromethyl)benzamide]		100	100	100				100	
C[C@H](NC(=O)c1cncc(Br)c1)c1ncnn1-c1ncccn1 [Compound I-134]		100	100	90			100		
